Experimental data: US5698515A, “Insulin-containing polymer composition for oral administration” (Institut Neftekhimicheskogo Sinteza Imeni A.V.Topchieva …, priority 1994, dated 1997)

How the values were obtained:
[1] = tested on: white rats with experimental diabetes (streptozotocin); experiment: Blood glucose in rats with streptozotocin-induced experimental diabetes; assay type: in vivo; conditions: diabetic rat, p.e. (subcutaneously), ± 8%
Protocol: Experimental diabetes is obtained (induced) in white rats of […], weighing 180 g., by way of intraperitoneally administered streptozotocin in the amount of 70 mg. for 1 kg. of weight. Synthesized polymers began to be introduced after the glucose level has exceeded 400 mg. %.
The procedure is conducted according to Example 12 with an equal amount of insulin administered subcutaneously in the form of solution.

rabbits [2] = experiment: Glucose concentration in blood of rabbits after oral administration of insulin hydrogels; assay type: in vivo; conditions: rabbit, orally, ± 8%
Protocol: 0.1 g. of a pre-dried crosslinked polyacrylamide, modified with ovomucoid, is placed in 1 ml. of an aqueous solution of insulin (insulin activity is 25 U/mg.) with a concentration of 1.0 mg./ml. per hour at room temperature. During this time limit the polymer swells completely and is ready to use. The synthesized hydrogel in an amount corresponding to 5 units of insulin per kg. of animal weight is administered to rabbits orally, using a catheter. Blood samples are collected after 30, 60, 90 and 120 minutes.
The procedure is conducted according to Example 1 using various crosslinked modified polymers, various concentrations of the insulin solution, various quantities of the cross-linked modified polymers and various amounts of ovomucoid.
The procedure is conducted according to Example 1 but using a nonmodified polyacrylamide hydrogel.
Rabbits are treated orally with an insulin solution in an amount of 7 U/kg. of animal weight, a mixture of ovomucoid (2.5 mg./kg. weight) and insulin (8 U/kg) or a modified hydrogel (200 mg./kg. weight).

rabbits [3] = conditions: subcutaneous injection, 0.23 units of insulin, cited from earlier work

**Q.** With “14k: Control: porcine insulin solution administered subcutaneously to rats [Example 14k]” as the substance, how does the “Glucose Conc. in Blood” value ([1]; 0 min) read?
**A.** 400 Mg./100 ml.

**Q.** What about the “Glucose Conc. in Blood” value ([1]; 30 min after administration) of the same substance?
**A.** 160 Mg./100 ml.

**Q.** And the “Glucose Conc. in Blood” value ([1]; 60 min after administration)?
**A.** 145 Mg./100 ml.

**Q.** And the “Glucose Conc. in Blood” value ([1]; 90 min after administration)?
**A.** 150 Mg./100 ml.

**Q.** Which results are given for “15k: Control: porcine insulin solution given orally to rabbits, 7 U/kg [Example 15k]”?
**A.** Glucose Conc. in Blood (rabbits [2]; 0 min (start), 5 U insulin/kg in Ex. 1 (Ex. 15: 7 U/kg; Ex. 16: 8 U/kg + ovomucoid 2.5 mg/kg; Ex. 17: 200 mg/kg hydrogel)): 152 Mg./100 ml.; Glucose Conc. in Blood (rabbits [2]; 30 min after administration): 151 Mg./100 ml.; Glucose Conc. in Blood (rabbits [2]; 60 min after administration): 150 Mg./100 ml.; Glucose Conc. in Blood (rabbits [2]; 90 min after administration): 160 Mg./100 ml.

**Q.** For insulin, which “glucose concentration in blood” value (rabbits [3]; 150 min. after the injection) is on record?
**A.** 120 mg./100 ml.

**Q.** What about the “reduction of glucose concentration in blood” value (rabbits [3]; 150 min. after the injection) of the same substance?
**A.** 74%

**Q.** And the “glucose concentration in blood, initial” value (rabbits [3]; before)?
**A.** 330 mg./100 ml.
